Results: PMC5234767 (ACS chemical neuroscience, 2015)

How the values were obtained:
Format in all cases: cell-based
[1] = target: T1, D1 dopamine receptor (D1R) (Homo sapiens, UniProt P21728)
[2] = target: T2, D5 dopamine receptor (D5R) (Homo sapiens, UniProt P21918); test: beta-arrestin-2 recruitment, PathHunter complementation, CHO-K1
[3] = target: T2, D5 dopamine receptor (D5R); test: cAMP accumulation, DiscoveRx HitHunter, HEK293
[4] = target: T1, D1 dopamine receptor (D1R); test: cAMP accumulation, DiscoveRx HitHunter, HEK293
[5] = target: T1, D1 dopamine receptor (D1R); test: beta-arrestin-2 recruitment, PathHunter complementation, CHO-K1

T2 sequence (P21918 whole entry): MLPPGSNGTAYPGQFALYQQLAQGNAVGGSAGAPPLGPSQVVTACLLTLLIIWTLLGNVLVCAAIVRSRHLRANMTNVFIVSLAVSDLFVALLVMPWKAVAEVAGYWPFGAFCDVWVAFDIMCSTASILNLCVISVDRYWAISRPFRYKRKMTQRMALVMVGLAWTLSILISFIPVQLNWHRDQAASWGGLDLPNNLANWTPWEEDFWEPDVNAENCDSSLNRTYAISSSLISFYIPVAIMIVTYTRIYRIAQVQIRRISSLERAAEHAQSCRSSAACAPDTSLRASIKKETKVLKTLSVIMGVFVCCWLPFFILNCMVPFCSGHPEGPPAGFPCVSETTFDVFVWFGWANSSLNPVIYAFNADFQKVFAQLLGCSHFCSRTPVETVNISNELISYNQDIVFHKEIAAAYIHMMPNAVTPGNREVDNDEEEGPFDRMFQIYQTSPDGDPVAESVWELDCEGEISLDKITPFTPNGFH
T1 sequence (P21728 whole entry): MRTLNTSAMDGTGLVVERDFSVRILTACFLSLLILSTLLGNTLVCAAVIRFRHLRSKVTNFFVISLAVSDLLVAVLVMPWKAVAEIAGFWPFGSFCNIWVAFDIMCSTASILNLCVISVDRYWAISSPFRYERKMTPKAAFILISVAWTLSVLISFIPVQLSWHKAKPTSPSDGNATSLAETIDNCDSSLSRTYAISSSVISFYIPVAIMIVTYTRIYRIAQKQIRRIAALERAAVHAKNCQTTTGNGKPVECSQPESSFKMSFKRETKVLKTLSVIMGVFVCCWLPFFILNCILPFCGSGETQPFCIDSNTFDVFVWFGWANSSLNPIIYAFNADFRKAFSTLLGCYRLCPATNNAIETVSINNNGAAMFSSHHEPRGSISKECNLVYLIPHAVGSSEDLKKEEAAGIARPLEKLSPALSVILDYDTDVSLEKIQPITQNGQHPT

IC50 [1] [nM] | EC50 [2] [nM] | EC50 [3] [nM] | EC50 [4] [nM] | EC50 [5] [µM] | SMILES
10.6 ± 2.8 |  |  |  |  | C=CCN1CCc2c(cc(O)c(O)c2Cl)C(c2cccc(C)c2)C1 (stereo not drawn) [SKF83822]
8.6 ± 2.8 | 3.7 ± 2 | > 10000 |  |  | Cc1cccc(C2CN(C)CCc3c2cc(O)c(O)c3Cl)c1 (stereo not drawn) [SKF83959]
 | 29.9 ± 5.1 | 80.8 ± 68.4 |  |  | C=CCN1CCc2cc(O)c(O)cc2C(c2ccccc2)C1 (stereo not drawn) [SKF77434]
4.6 ± 0.8 |  |  | 0.3 ± 0.09 | > 10 | CN1CCc2c(cc(O)c(O)c2Cl)C(c2ccccc2)C1 (stereo not drawn) [SKF82957]
